# Results published in a melting point compilation (Tetko et al.).
row,melting point,SMILES
1,160 to 164 °C,O=Cc1c[nH]nc1-c1ccc(F)cc1
2,93.6 °C,CCCCCCCCCCCCCCCCCCCCCCCCCCCCCC(=O)O
3,45 °C,Cc1cc(I)cnc1Br
4,-30.4 °C,CCOC(=O)C(C)(C)C(=O)OCC
5,58 to 60 °C,COC(=O)c1scc(C)c1N=C=S
6,51 °C,CCOC(=O)CCC(=O)c1ccc(OC)cc1
7,202 to 203 °C,Nc1ncnc2c1ncn2CC(O)CO (stereo unspecified)
8,57 °C,Cc1cc([N+](=O)[O-])cnc1Br
9,191 to 194 °C,COc1ccc(C(=O)O)cc1[N+](=O)[O-]
10,75 °C,c1ccn2cccc2c1
11,41 °C,O=C=Nc1ccccc1[N+](=O)[O-]
12,228 °C,COS(=O)(=O)c1cc([N+](=O)[O-])ccc1C=Cc1ccc([N+](=O)[O-])cc1S(=O)(=O)OC
13,120 to 122 °C,CC(=O)NCCc1c[nH]c2ccc(O)cc12
14,140 °C,O=C(Cc1ccccc1)NC(CO)c1ccccc1 (stereo unspecified)
15,68 to 73 °C,COc1ccc([N+](=O)[O-])c(I)c1
16,189 °C,NNC(=O)COc1ccc([N+](=O)[O-])cc1
17,148 °C,CC(=O)NC(=O)c1ccccc1O
18,71 to 74 °C,O=C(Cl)c1cccnc1Sc1ccccc1
19,166 °C,CC(NC(=O)c1ccccc1)C(=O)O (racemic)
20,20 to 22 °C,O=CC(Cl)=Cc1ccccc1
21,69 °C,CCCCCCCCCOC(=O)c1ccc(N)cc1
22,114 °C,O=C1C=CC(=O)C(c2ccccc2)=C1
23,< 25 °C,CC1=CCC(=C(C)C)CC1
24,196 to 198 °C,CC(C)(C)S(=O)(=O)c1cnc(N2CCOCC2)nc1N
25,47 °C,Nc1ccc(C(F)(F)F)cn1
26,96 to 100 °C,O=Cc1ccc2cccc(O)c2n1
27,138 °C,Cc1c(C)c(C)c(C(=O)c2ccccc2)c(C)c1C

row,melting point,SMILES
1,-30 °C,CCOC(=O)C(=O)C(=O)OCC
2,249 to 252 °C,Cc1nc(Cl)nc(N)c1N
3,112 to 114 °C,BrCc1sc(-c2ccccc2)nc1-c1ccccc1
4,46 to 50 °C,ClCC1CN(Cc2ccccc2)CCO1 (stereo unspecified)
5,149 °C,CC12CCC(C(O)C(C(c3ccccc3)C3C(=O)C4(C)CCC(C3O)C4(C)C)C1=O)C2(C)C (stereo unspecified)
6,164 °C,CC1=C(C(=O)OCc2ccccc2)C(c2ccco2)NC(=S)N1 (stereo unspecified)
7,207 °C,COc1cc2c(cc1OC)C(=O)C(CC1CCN(Cc3ccccc3)CC1)C2 (stereo unspecified)
8,132 °C,CC(=O)N1CC(O)CC1C(=O)O (stereo unspecified)
9,262 °C,Cn1c(=O)c(C2=NNC(=O)C2=NNc2ccc(I)cc2)c(O)c2ccccc21
10,88 to 92 °C,OCC1OC(O)C(O)C1O (stereo unspecified)
11,26.5 °C,NC=S
12,38 to 40 °C,CCOC(=O)C(=O)CC(=O)c1cccs1
13,51 °C,Ic1cccc(OCc2ccccc2)c1
14,-78 °C,CCCCNCC
15,147 °C,O=C(O)CN1C(=O)CSC1=S
16,142 to 145 °C,COc1cc(OC)c(C#N)c(OC)c1
17,73 to 75 °C,NC(=O)CCOC1CCN(Cc2ccccc2)CC1
18,196 to 201 °C,Cc1cc(=O)[nH]cc1Br
19,92 to 95 °C,CCN(CC)c1ccc(C=NN(c2ccccc2)c2ccccc2)cc1
20,184 °C,CN(C)c1ccc(C=Cc2ccc3ccccc3n2)cc1
21,92 °C,Cc1ccc(S(=O)(=O)OCC2OC(C)(C)OC2COS(=O)(=O)c2ccc(C)cc2)cc1 (stereo unspecified)
22,134 °C,Nc1ccc(-c2ccc(Cl)cc2)cc1
23,44 to 48 °C,CCCCCCCCCCCC(=O)N(C)CC(=O)O
24,159 °C,NC(=O)N1C(=O)C=CC1=O
25,86 to 88 °C,OCc1ccc(-c2ccccn2)s1
26,98 to 102 °C,COC1C(C(O)CO)OC2OC3(CCCCC3)OC21 (stereo unspecified)
27,121 °C,O=C(C1=NOC2C(=O)N(c3ccc(Cl)cc3)C(=O)C12)c1ccc2ccccc2c1 (stereo unspecified)

row,melting point,SMILES
1,84 to 85 °C,COc1ccc2c(c1)CC1(CCC(c3ccc(C(C)(C)C)cc3)CC1)C2 (stereo unspecified)
2,167 to 168 °C,O=C(C=Cc1ccc(Br)cc1)c1ccc(Cl)cc1
3,-80.8 °C,CCC1CCC(C)CC1 (stereo unspecified)
4,-10 °C,C[Si]1(C)N[Si](C)(C)N[Si](C)(C)N1
5,98 °C,Nc1c(Br)cc(Br)c(Cl)c1Cl
6,120 to 125 °C,CC(C)(C)OC(=O)N[C@H](CC#N)Cc1ccccc1
7,132 to 134 °C,O=C(CBr)c1cc(Br)cc2c1OCC2
8,121 °C,CC(C)SC1OC(CO)C(O)C(O)C1O (stereo unspecified)
9,104 °C,Cc1ccc(C(c2ccc(C)o2)c2cc(I)ccc2O)o1
10,-105 °C,CCC(C)(C)N
11,46.5 °C,c1ccc2nn(C3CCCCC3)nc2c1
12,88 °C,COC(=O)c1cc(Br)c(C)c(Br)c1
13,45.5 °C,CCCCNCC(=O)Nc1c(C)cccc1Cl
14,175 °C,Cc1cc2c(o1)-c1c(oc3c(I)cc(I)cc13)CCC2(C)c1ccccc1 (stereo unspecified)
15,109 °C,Ic1cn[nH]c1
16,140 °C,Clc1ccc2cc(Cl)ccc2c1
17,170 °C,COc1ccc(-c2onc(C(=O)c3ccc(C)cc3)c2S(=O)(=O)c2ccccc2)cc1
18,-70 °C,CCC(C)(Br)CBr (stereo unspecified)
19,206 °C,CC(=O)c1cc(O)ccc1O
20,32 to 39 °C,O=C=NS(=O)(=O)c1ccc(F)cc1
21,137 to 138 °C,O=C(O)c1cnn(-c2ccc(Cl)cc2)c1C(F)(F)F
22,106 °C,Cc1ccc(C#N)cc1[N+](=O)[O-]
23,144 °C,Nc1ccc(Sc2ccc([N+](=O)[O-])cc2)cc1
24,84 °C,CC(C)OC(=O)C(C)N(C(=O)c1ccccc1)c1ccc(F)c(Cl)c1 (stereo unspecified)
25,73 °C,CCc1ccc(C#Cc2ccc(C)cc2)cc1
26,-16.7 °C,CCOc1ccccc1F
27,195 °C,COc1cc(C=C2SC(=S)N(CNc3ccc([N+](=O)[O-])cc3)C2=O)ccc1O

row,melting point,SMILES
1,242 °C,C=C1/C(=N/Nc2cc(Cl)c(Cl)cc2Cl)C(=O)N(C)C(=O)N1C
2,150 °C,CCOC(=O)C1CCN(c2nc(Cl)nc(Cl)n2)CC1
3,264 to 265 °C,OCc1c(Br)c(Br)c(Br)c(Br)c1Br
4,62.5 °C,CCCCCCCCNC(C)C(O)c1ccc(SC(C)C)cc1 (stereo unspecified)
5,208 °C,CC(=O)SC1CC2=CC(=O)CCC2(C)C2CCC3(C)C(CCC34CCC(=O)O4)C12 (stereo unspecified)
6,174 to 176 °C,CC(=O)N1CCC(c2c[nH]c3ccccc23)CC1
7,171 °C,CC(C)(C)OC(=O)c1cc2cc3c4c(c2oc1=O)CCCN4CCC3
8,156 °C,O=C(O)COc1ccc2ccccc2c1
9,106 °C,COC(=O)CSc1cc(N=c2sc(=O)n3n2CCCC3)c(F)cc1Cl
10,56 °C,OC1Cc2cccc(F)c21 (stereo unspecified)
11,24.4 °C,CC/C=C(\C)C(=O)O
12,209 to 210 °C,O=C(C=Cc1ccc2c(c1)OCO2)c1ccc(O)cc1
13,176 to 178 °C,COc1ccc(-c2ccc(C(=O)O)o2)cc1
14,255 °C,CN1CC(=O)NC1=N
15,300 °C,Cn1cnc2ncnc-2c1N
16,144 °C,O=C(Cl)c1cn(S(=O)(=O)c2ccccc2)c2ccccc12
17,126 to 128 °C,OCC1CCN(c2ncnc3ccsc23)CC1
18,129 °C,C=NCC#N
19,68 °C,CC(C)(C)OC(=O)N1CCCC(O)C1 (stereo unspecified)
20,157 to 158 °C,O=C(C=Cc1ccc(-c2ccc([N+](=O)[O-])cc2)o1)c1ccccc1
21,146 °C,COC(=O)C1(S(=O)(=O)c2ccc(C)cc2)CCCCC1
22,63 °C,CCSc1ccc2c(c1)N(CCCN1CCN(C)CC1)c1ccccc1S2
23,161 to 162 °C,CC(=O)Nc1cc(C)no1
24,229 to 230 °C,CCCCCCCCCCCCCCCC(=O)OCC(COP(=O)([O-])OCC[N+](C)(C)C)OC(=O)CCCCCCCCCCCCCCC (stereo unspecified)

row,SMILES,melting point
1,Cc1ccc(S(=O)(=O)OC2CCC3(C)C(CCC4C5CCC(=O)C5(C)CCC43)C2)cc1 (stereo unspecified),164 to 166 °C
2,NC(=O)NN=CC[N+](=O)[O-],360 °C
3,CCOC(=O)NC(=O)CCl,127 to 131 °C
4,Cc1nn(C(C)(C)C)c(C)c1C=O,56 to 61 °C
5,Nc1cccc(Cc2cccc(N)c2)c1,81.5 °C
6,CC(C)Nc1nc(Cl)nc(NC(C)C)n1,213 °C
7,IC(I)=C(I)I,187 °C
8,S=C=NC(c1ccccc1)(c1ccccc1)c1ccccc1,138 to 140 °C
9,CCOP(=S)(OCC)SCSC(C)(C)C,-29.2 °C
10,O=C=Nc1ccc(CCl)cc1,33 °C
11,CN(C)C(=S)Cl,42.5 °C
12,CCC(=O)Cl,-94 °C
13,CCC(O)C(CC(C)N(C)C)(c1ccccc1)c1ccccc1 (stereo unspecified),127 °C
14,C=C(Br)CC1(C(C)CC)C(=O)NC(=O)NC1=O (stereo unspecified),132 °C
15,NC1CCC(CC2CCC(N)CC2)CC1 (stereo unspecified),64.7 °C
16,O=C(Cl)c1ccc(I)cc1,63 °C
17,C=C(C)C1CCC(C)=CC1c1c(O)cc(CCCCC)cc1O (stereo unspecified),67 °C
18,C=C(C)C1(O)C2OC(=O)C1C1(O)C3OC3C3(CO3)C1(C)C2O (stereo unspecified),225 °C
19,Clc1ccccc1-c1nnc(-c2ccccc2Cl)nn1,183 °C
20,O=C1NC(=O)C(Cc2cccc(CC3C(=O)NC(=O)NC3=O)c2)C(=O)N1,272 °C
21,N#CCCP(CCC#N)c1ccccc1,73 °C
22,Cc1cc(Cl)cc(Cl)c1Cl,45.5 °C
23,Brc1ccc2c(c1)CNCC2,34 °C
24,O=[N+]([O-])c1ccc(C(Br)C(Br)c2ccc(C(Br)C(Br)c3ccc([N+](=O)[O-])cc3[N+](=O)[O-])cc2)c([N+](=O)[O-])c1 (stereo unspecified),265 °C
25,COP(=O)(OC)c1ccccc1P(=O)(OC)OC,81 °C
26,CCSCc1ccccc1OC(=O)NC,33.4 °C
